This experiment relates to M. tuberculosis H37Rv growth inhibition with meropenem. Nature of the experiment: dose response, H37Rv, with and without meropenem (AID 434987).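 Note: growth over 7 days at 37 °C before Alamar Blue read on day 9.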
Setting [1] is: M. tuberculosis H37Rv growth inhibition, measured here: IC50 without meropenem.
[2] abbreviates: M. tuberculosis H37Rv growth inhibition, measured here: IC90 without meropenem.
Setting [3] is: measured here: IC90 with meropenem.

SMILES strings stand for the structures. pIC50: −log10 of the molar value. Activity calls are given as the source filed them. The rule behind the calls is not given here. Some results are limits rather than exact numbers.

The pIC50 is the IC50 on a negative log10 scale, so that one unit is a factor of ten. The IC90 is the concentration needed for an effect of 90%. Read a low IC90 as an effect from little substance. For the molecule `CCOc1ccc2c(c1)c(C(C)=O)c(C)n2-c1ccccc1`, the pIC50 is above 6.70. Moreover, the pIC50 under setting [1] is below 4.00. This molecule also had an IC90 under setting [2] above 100 µM. The same molecule had an IC90 under setting [3] of 1.96 µM.

Usually IC50 stands for the concentration that inhibits the measured activity by half. In the case of `Cc1ccc(NC(=O)C2(c3ccccc3)CC2(Cl)Cl)cc1C` (stereo not drawn), the IC50 is > 100 µM (inactive). For the same molecule, the negative logarithm of the IC50 (pIC50) under setting [1] is below 4.00. Under setting [2], this molecule had an IC90 above 100 µM. This molecule also yielded an IC90 under setting [3] above 100 µM.

`Cc1c(-c2ccccc2)sc(Br)c1C(=O)N1CCOCC1`: the IC50 is > 100 µM (inactive). This molecule also had a pIC50 under setting [1] below 4.00. Further, the concentration for an effect of 90% (IC90) under setting [2] is above 100 µM. This molecule also had a 90% effect concentration (IC90) under setting [3] above 100 µM.

On to `COc1ccc(OC)c(-c2cc(C(=O)Nc3c(C)n(C)n(-c4ccccc4)c3=O)no2)c1`, for which the pIC50 is 4.77. This molecule showed a negative-log IC50 (pIC50) under setting [1] of 4.27. In addition, the 90% effect concentration (IC90) under setting [2] was above 100 µM. In addition, the 90% effect concentration (IC90) under setting [3] stood at 49.5 µM.

As to `CSc1ncnc2c1ccn2CC(=O)Nc1ccc(C)c(C)c1`, the pIC50 was 5.07. Under setting [1], this molecule showed a pIC50 below 4.00. The same molecule returned a 90% effect concentration (IC90) under setting [2] above 100 µM. Under setting [3], the IC90 is above 25 µM.

Consider `Cc1ccc(C)c(NC(=O)c2cc(-c3cccnc3)nc3ccccc23)c1`, for which the IC50 is > 100 µM (inactive). The molecule also had a negative logarithm of the IC50 (pIC50) under setting [1] below 4.00. In addition, the 90% effect concentration (IC90) under setting [2] was above 100 µM. The molecule further had an IC90 under setting [3] above 100 µM.

Regarding `Cc1ccccc1NC(=O)/C(C#N)=C\c1cc(C)n(-c2ccc(C(=O)O)cc2)c1C`, the IC50 was 21 µM (inactive). The molecule further gave a pIC50 under setting [1] of 4.33. Further, under setting [2], the IC90 is 76.7 µM. This molecule displayed an IC90 under setting [3] of 51.1 µM.

As for `Cc1cc(Br)ccc1NC(=O)c1ccccc1-c1ccccc1`, the negative logarithm of the IC50 (pIC50) was 4.85. The molecule further had a pIC50 under setting [1] below 4.00. The same molecule came in with a concentration for an effect of 90% (IC90) under setting [2] above 100 µM. For the same molecule, the concentration for an effect of 90% (IC90) under setting [3] was above 100 µM.

As to `O=C(Cn1cnc2sc3c(c2c1=O)CCCC3)NCC(=O)Nc1ccccc1F`, the IC50 is 88.3 µM (inactive). The same molecule had a negative logarithm of the IC50 (pIC50) under setting [1] below 4.00. Under setting [2], this molecule returned a concentration for an effect of 90% (IC90) above 100 µM. Moreover, under setting [3], the IC90 stood at 95.5 µM.

`Cc1cc(NC(=O)CSc2nc(C(C)C)nc3sc4c(c23)CCCC4)no1`: the IC50 was > 100 µM (inactive). Under setting [1], this molecule gave a pIC50 below 4.00. Moreover, under setting [2], the concentration for an effect of 90% (IC90) was above 100 µM. Further, the IC90 under setting [3] is above 100 µM.

Regarding `COCCCNCCOCCOc1ccc(C)cc1Br`, the IC50 was > 100 µM (inactive). In addition, the pIC50 under setting [1] was below 4.00. Under setting [2], this molecule came in with an IC90 above 100 µM. Under setting [3], the 90% effect concentration (IC90) was above 100 µM.

As to `COc1ccc(-c2cc3nc(C)cc(N4CC(C)CC(C)C4)n3n2)cc1` (stereo not drawn), the IC50 is > 100 µM (inactive). This molecule gave a pIC50 under setting [1] below 4.00. Moreover, the IC90 under setting [2] was above 100 µM. The IC90 under setting [3] is above 100 µM.

In the case of `CSc1ccccc1C(=O)Nc1ccc2c(c1)OCCO2`, the IC50 was 35.4 µM (inactive). In addition, the negative-log IC50 (pIC50) under setting [1] is 4.09. The same molecule displayed an IC90 under setting [2] above 100 µM. The same molecule returned an IC90 under setting [3] above 100 µM.

In the case of `O=C(NCC1COc2ccccc2O1)C1CCC(CNc2c(N3CCCCC3)c(=O)c2=O)CC1` (stereo not drawn), the IC50 was 24 µM (inactive). For the same molecule, the pIC50 under setting [1] is 4.34. This molecule came in with an IC90 under setting [2] of 51.7 µM. Moreover, under setting [3], the IC90 was 26.7 µM.

Consider `C/C(=N\NC(=S)Nc1ccccc1C)c1ccc(O)cc1`, for which the pIC50 was 6.26. The pIC50 under setting [1] was 4.67. Under setting [2], this molecule yielded a 90% effect concentration (IC90) of 24.7 µM. For the same molecule, the concentration for an effect of 90% (IC90) under setting [3] was found to be 7.97 µM.

With `COc1cc(SC)ccc1C(=O)Nc1ccc(C)cc1C`, the pIC50 was 4.42. The molecule also gave a negative logarithm of the IC50 (pIC50) under setting [1] below 4.00. For the same molecule, the IC90 under setting [2] is above 100 µM. The same molecule returned a 90% effect concentration (IC90) under setting [3] above 100 µM.

Consider `COc1ccc(/C(O)=C/C(=O)C(=O)NNC(=O)C(O)(c2ccccc2)c2ccccc2)cc1`, for which the IC50 was > 100 µM (inactive). For the same molecule, the negative logarithm of the IC50 (pIC50) under setting [1] was below 4.00. In addition, the IC90 under setting [2] was above 100 µM. Under setting [3], the 90% effect concentration (IC90) is above 100 µM.

As to `Cc1cccc(Cl)c1NC(=S)NN`, the IC50 was 36 µM (inactive). The same molecule had a negative-log IC50 (pIC50) under setting [1] of 4.35. This molecule showed an IC90 under setting [2] of 59.5 µM. The molecule further had a 90% effect concentration (IC90) under setting [3] of 55.1 µM.

As for `CCCC(=O)N1CCN(c2ccc(NC(=S)NC(=O)CC)cc2)CC1`, the IC50 was 62.1 µM (inactive). Under setting [1], this molecule showed a pIC50 below 4.00. For the same molecule, the IC90 under setting [2] was above 100 µM. The 90% effect concentration (IC90) under setting [3] is above 100 µM.

Turning to `CCOC(=O)C1CCN(C(=O)c2sc3nc(C)nc(N4CCC(C)CC4)c3c2C)CC1`, the IC50 was 69.5 µM (inactive). Besides, the pIC50 under setting [1] was 4.12. This molecule also returned an IC90 under setting [2] above 100 µM. This molecule also yielded an IC90 under setting [3] above 100 µM.

`CCNCC(O)c1cccc(O)c1` (stereo not drawn): the IC50 was > 100 µM (inactive). The molecule further gave a pIC50 under setting [1] below 4.00. Besides, the IC90 under setting [2] is above 100 µM. Further, under setting [3], the IC90 was above 100 µM.

As for `Cc1ccc(-n2ncc(-c3nnc(SCC(=O)NC4CCCC4)o3)c2N)cc1C`, the IC50 is > 100 µM (inactive). This molecule showed a pIC50 under setting [1] below 4.00. Under setting [2], the IC90 was above 100 µM. The IC90 under setting [3] was above 100 µM.

For the origin of these results see PubChem BioAssay AID434987 (Southern Research Specialized Biocontainment Screening …, 2010).
